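96-well plates; 48 h exposure; 5 concentrations. Endpoints by linear interpolation between flanking doses. Not reached: highest tested concentration assigned. Abbreviation: GI50, concentration required for 50% inhibition of growth.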 Activity calls are given as the source filed them. Cut-off read from the data, not from the text of the source: active = GI50 up to about 1.1 µM and inactive = higher.
Columns and labels:
Assay in all cases: growth of human tumour cells (NCI), 48 h
A498 = test system: A498
HCT-116 = test system: HCT-116
HCT-15 = test system: HCT-15
KM12 = test system: KM12
NCI/ADR-RES = test system: NCI/ADR-RES
OVCAR-3 = test system: OVCAR-3
OVCAR-8 = test system: OVCAR-8
SF-268 = test system: SF-268
SK-MEL-2 = test system: SK-MEL-2
SK-MEL-5 = test system: SK-MEL-5
SK-OV-3 = test system: SK-OV-3
T47D = test system: T47D
UACC-257 = test system: UACC-257
UO-31 = test system: UO-31
HOP-92 = test system: HOP-92
HT-29 = test system: HT-29
Hs-578T = test system: Hs-578T
K562 = test system: K562
U-251 = test system: U-251

Structure (SMILES)	GI50 (A498)	GI50 (HCT-116)	GI50 (HCT-15)	GI50 (KM12)	GI50 (NCI/ADR-RES)	GI50 (OVCAR-3)	GI50 (OVCAR-8)	GI50 (SF-268)	GI50 (SK-MEL-2)	GI50 (SK-MEL-5)	GI50 (SK-OV-3)	GI50 (T47D)	GI50 (UACC-257)	GI50 (UO-31)	GI50 (HOP-92)	GI50 (HT-29)	GI50 (Hs-578T)	GI50 (K562)	GI50 (U-251)
CC(C)=C[C@H]1CCC2(OCCO2)[C@]1(C)COCc1ccccc1	23.7 µM (inactive)	29.9 µM (inactive)	39.5 µM	33.7 µM (inactive)	36.8 µM (inactive)	22 µM (inactive)	38.6 µM (inactive)	48.9 µM (inactive)	25.5 µM (inactive)	16.3 µM (inactive)	32.4 µM (inactive)	35.2 µM (inactive)	16.4 µM (inactive)	43.6 µM (inactive)	–	–	–	–	–
CCCNC(=O)Cn1c2c(c3ccccc31)CCCC2	27.8 µM (inactive)	29.2 µM (inactive)	45.2 µM	–	50.9 µM (inactive)	36.9 µM (inactive)	> 100 µM (inactive)	> 100 µM (inactive)	> 100 µM (inactive)	33.7 µM (inactive)	94.8 µM (inactive)	–	94 µM (inactive)	20 µM (inactive)	> 100 µM (inactive)	> 100 µM (inactive)	23.1 µM (inactive)	73.1 µM (inactive)	–
S=C1CSc2c(cnc3ccccc23)N1	–	> 100 µM (inactive)	> 100 µM	> 100 µM (inactive)	> 100 µM (inactive)	> 100 µM (inactive)	65.9 µM (inactive)	> 100 µM (inactive)	–	> 100 µM (inactive)	> 100 µM (inactive)	80.5 µM (inactive)	> 100 µM (inactive)	65.6 µM (inactive)	–	> 100 µM (inactive)	20 µM (inactive)	> 100 µM (inactive)	> 100 µM (inactive)
CN(CCSCCN(C)C(=O)OC(C)(C)C)C(=O)OC(C)(C)C	–	> 100 µM (inactive)	> 100 µM	> 100 µM (inactive)	> 100 µM (inactive)	> 100 µM (inactive)	> 100 µM (inactive)	> 100 µM (inactive)	> 100 µM (inactive)	> 100 µM (inactive)	> 100 µM (inactive)	–	> 100 µM (inactive)	> 100 µM (inactive)	> 100 µM (inactive)	> 100 µM (inactive)	> 100 µM (inactive)	> 100 µM (inactive)	> 100 µM (inactive)
CC(C)(C)[Si](C)(C)OC1/C(=C/C#N)C(n2ccc(=O)[nH]c2=O)OC1CO (configuration not stated)	> 100 µM (inactive)	> 100 µM (inactive)	–	> 100 µM (inactive)	> 100 µM (inactive)	> 100 µM (inactive)	> 100 µM (inactive)	> 100 µM (inactive)	> 100 µM (inactive)	> 100 µM (inactive)	> 100 µM (inactive)	> 100 µM (inactive)	–	> 100 µM (inactive)	3.01 µM (inactive)	> 100 µM (inactive)	–	96.2 µM (inactive)	> 100 µM (inactive)
[N-]=[N+]=Nc1cc(=O)[nH]c2ccccc12	–	> 100 µM (inactive)	–	> 100 µM (inactive)	> 100 µM (inactive)	65.2 µM (inactive)	> 100 µM (inactive)	> 100 µM (inactive)	> 100 µM (inactive)	> 100 µM (inactive)	85.3 µM (inactive)	64.9 µM (inactive)	> 100 µM (inactive)	31.4 µM (inactive)	85.3 µM (inactive)	> 100 µM (inactive)	44.3 µM (inactive)	> 100 µM (inactive)	> 100 µM (inactive)
O=C(COc1ccccc1Cl)N1N=C(c2ccc(Cl)cc2)CC1(O)c1ccccc1 (configuration not stated)	–	> 100 µM (inactive)	> 100 µM	> 100 µM (inactive)	–	> 100 µM (inactive)	> 100 µM (inactive)	> 100 µM (inactive)	> 100 µM (inactive)	–	> 100 µM (inactive)	–	> 100 µM (inactive)	> 100 µM (inactive)	> 100 µM (inactive)	> 100 µM (inactive)	–	> 100 µM (inactive)	> 100 µM (inactive)
CCOC(=O)CCCn1nnc(C(=O)OCC)c1C(=O)OCC	–	> 100 µM (inactive)	> 100 µM	> 100 µM (inactive)	> 100 µM (inactive)	–	> 100 µM (inactive)	> 100 µM (inactive)	> 100 µM (inactive)	> 100 µM (inactive)	–	> 100 µM (inactive)	> 100 µM (inactive)	> 100 µM (inactive)	> 100 µM (inactive)	> 100 µM (inactive)	> 100 µM (inactive)	–	> 100 µM (inactive)
Cc1cccc2oc3c(CC(=O)O)cccc3c(=O)c12	> 100 µM (inactive)	> 100 µM (inactive)	> 100 µM	> 100 µM (inactive)	> 100 µM (inactive)	> 100 µM (inactive)	> 100 µM (inactive)	> 100 µM (inactive)	5.16 µM (inactive)	> 100 µM (inactive)	–	–	> 100 µM (inactive)	> 100 µM (inactive)	> 100 µM (inactive)	> 100 µM (inactive)	> 100 µM (inactive)	> 100 µM (inactive)	> 100 µM (inactive)
